Patent US8309721B2, “HSP90 inhibitory carbazole derivatives, compositions containing same and use thereof” (Sanofi, priority 2008, dated 2012)
pIC50: −log10 of the molar value. Where a name gives a salt, the structure may show the parent alone.

Assays:
[1] = tested on: Her2 receptor expression at the surface of SKBr3 cells; test: phenotypic SKBr3/HER2 cell test (Her2 surface expression by flow cytometry); format: cell-based; settings: Homo sapiens, SK-BR-3, 24 h incubation, inhibition of Her2 expression
In short: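 SKBr3 cells (Her2-overexpressing adenocarcinoma) treated 24 h with compound at varying concentrations, then stained with PE-anti-Her2 antibody 30 min at 4° C; surface Her2 measured by flow cytometry. IC50 from nonlinear fit of % inhibition of Her2 expression versus concentration.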

Hsp82 = Hsp82 (Saccharomyces cerevisiae, UniProt P02829); test: Hsp82/ATPase test (malachite green or PK/LDH coupled method); format: biochemical; settings: 1 μM Hsp82, 250 μM ATP, 37° C.; read-out: Hsp82 ATPase IC50
Method: The biochemical activity of the compounds can in particular be evaluated by means of the “Hsp82/ATPase” test described below: The inorganic phosphate released during the hydrolysis of ATP by the ATPase activity of Hsp82 is quantified by the malachite green method. In the presence of this reagent, formation of the inorganic phosphate-molybdate-malachite green complex, which absorbs at a wavelength of 620 nm, occurs. The products to be evaluated are incubated in a reaction volume of 30 μl, in the presence of 1 μM Hsp82 and of 250 μM of substrate (ATP) in a buffer composed of 50 mM Hepes-NaOH (pH 7.5), 1 mM DTT, 5 mM MgCl2 and 50 mM KCl at 37° C. for 60 min. In parallel, an inorganic phosphate range of between 1 and 40 μM is made up in the same buffer. […] After incubation at ambient temperature for 20 min, the absorbance of the various wells is measured using a microplate reader at 620 nm. The inorganic phosphate concentration of each sample is then calculated from the standard curve. The ATPase activity of Hsp82 is expressed as concentration of inorganic phosphate produced in 60 minutes. The effect of the various products tested is expressed as percentage inhibition of the ATPase activity. The formation of ADP due to the ATPase activity of Hsp82 was used to develop another method for evaluating the enzyme activity of this enzyme by application of an enzymatic coupling system involving pyruvate kinase (PK) and lactate dehydrogenase (LDH). In this kinetic-type spectrophotometric method, PK catalyses the formation of ATP and of pyruvate from phosphoenol pyruvate (PEP) and the ADP produced by Hsp82. The pyruvate formed, which is a substrate for LDH, is subsequently converted to lactate in the presence of NADH. In this case, the decrease in the NADH concentration, measured through the decrease in absorbance at the wavelength of 340 nm, is proportional to the concentration of ADP produced by Hsp82. The products tested are incubated in a reaction volume of 100 μl of buffer composed of 100 mM Hepes-NaOH (pH 7.5), 5 mM MgCl2, 1 mM DTT, 150 mM KCl, 0.3 mM NADH, 2.5 mM PEP and 250 μM ATP. This mixture is preincubated at 37° C. for 30 minutes before the addition of 3.77 units of LDH and 3.77 units of PK. The reaction is initiated by addition of the product to be evaluated, in varying concentrations, and of Hsp82, at the concentration of 1 μM. The enzymatic activity of Hsp82 is then measured continuously, in a microplate reader, at 37° C., at the wavelength of 340 nm. The initial rate of the reaction is obtained by measuring the slope of the tangent to the origin of the curve recorded. The enzymatic activity is expressed in μM of ADP formed per minute. The effect of the various products tested is expressed as percentage inhibition of the ATPase activity according to the codification below: […]

Chain of Hsp82 (P02829 whole entry): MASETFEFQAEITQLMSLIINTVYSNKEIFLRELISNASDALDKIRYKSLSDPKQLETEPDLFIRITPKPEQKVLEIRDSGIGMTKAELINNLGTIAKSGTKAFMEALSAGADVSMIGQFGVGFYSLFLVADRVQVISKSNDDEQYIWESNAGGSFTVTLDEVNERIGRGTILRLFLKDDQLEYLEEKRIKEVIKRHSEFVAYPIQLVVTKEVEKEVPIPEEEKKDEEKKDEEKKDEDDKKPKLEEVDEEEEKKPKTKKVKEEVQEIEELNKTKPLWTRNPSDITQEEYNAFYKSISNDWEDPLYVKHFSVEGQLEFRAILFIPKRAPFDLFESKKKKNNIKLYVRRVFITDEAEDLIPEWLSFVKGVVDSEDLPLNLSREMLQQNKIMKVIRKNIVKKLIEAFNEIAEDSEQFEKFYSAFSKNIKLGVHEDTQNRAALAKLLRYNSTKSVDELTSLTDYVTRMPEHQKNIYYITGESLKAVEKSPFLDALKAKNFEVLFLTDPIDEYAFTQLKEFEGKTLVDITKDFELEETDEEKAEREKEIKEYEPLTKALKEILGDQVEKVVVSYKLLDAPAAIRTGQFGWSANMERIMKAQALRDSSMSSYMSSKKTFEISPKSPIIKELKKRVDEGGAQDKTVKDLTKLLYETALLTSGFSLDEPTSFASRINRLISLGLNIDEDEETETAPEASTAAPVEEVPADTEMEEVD

Work on `N#Cc1ccc(-c2cccc3c2c2ccccc2n3-c2ccc(C(N)=O)c(NC3CCOCC3)c2)cn1` [Example 126, 4-[4-(6-cyanopyridin-3-yl)-9H-carbazol-9-yl]-2-(tetrahydro-2H-pyran-4-ylamino)benzamide] yielded a melting point of 256 °C and a pIC50 [1] of over 6.00.

Work on `NC(=O)c1ccc(-c2cccc3c2c2ccccc2n3-c2ccc(C(N)=O)c(N[C@H]3CC[C@H](O)CC3)c2)cn1` [Example 28, 5-(9-{4-carbamoyl-3-[(4-trans-hydroxycyclohexyl)amino]phenyl}-9H-carbazol-4-yl)pyridine-2-carboxamide] yielded a melting point of over 260 °C, a pIC50 (Hsp82) of 5.00 to 6.00 and a pIC50 [1] of over 6.00.

`N#Cc1ccc(-c2cccc3c2c2ccccc2n3-c2ccc(C(N)=O)c(NCCCO)c2)cn1` [Example 112, 4-[4-(6-cyanopyridin-3-yl)-9H-carbazol-9-yl]-2-[(3-hydroxypropyl)amino]benzamide] showed a melting point of 204 °C and a pIC50 [1] of over 6.00.

`COc1cncc(-c2cccc3c2c2ccccc2n3-c2ccc(C(N)=O)c(NCCCO)c2)c1` [Example 66, 2-[(3-hydroxypropyl)amino]-4-[4-(5-methoxypyridin-3-yl)-9H-carbazol-9-yl]benzamide] showed a melting point of 198 °C, a pIC50 (Hsp82) of over 6.00 and a pIC50 [1] of 5.00 to 6.00.

With `N#Cc1ccc(-c2cccc3c2c2ccccc2n3-c2ccc(C(N)=O)c(N[C@H]3CC[C@H](O)CC3)c2)cn1` [Example 49, 4-[4-(6-cyanopyridin-3-yl)-9H-carbazol-9-yl]-2-[(4-trans-hydroxycyclohexyl)amino]benzamide] the melting point was 274 °C, the pIC50 (Hsp82) was over 6.00 and the pIC50 [1] was over 6.00.

In the case of `COc1cncc(-c2cccc3c2c2ccccc2n3-c2ccc(C(N)=O)c(N[C@H]3CC[C@H](O)CC3)c2)c1` [Example 27, 2-[(4-trans-hydroxycyclohexyl)amino]-4-[4-(5-methoxypyridin-3-yl)-9H-carbazol-9-yl]benzamide], the melting point was 263 °C, the pIC50 (Hsp82) was over 6.00 and the pIC50 [1] was over 6.00.

For `NC(=O)c1ccc(-n2c3ccccc3c3c(-c4cncc(OCc5ccccc5)c4)cccc32)cc1NCCCO` [Example 68, 4-{4-[5-(benzyloxy)pyridin-3-yl]-9H-carbazol-9-yl}-2-[(3-hydroxypropyl)amino]benzamide], the melting point was 168 °C, the pIC50 (Hsp82) was 5.00 to 6.00 and the pIC50 [1] was 5.00 to 6.00.

`NC(=O)c1ccc(-n2c3ccccc3c3c(-c4ccc(C(F)(F)F)nc4)cccc32)cc1NCCCO` [Example 69, 2-[(3-hydroxypropyl)amino]-4-{4-[6-(trifluoromethyl)pyridin-3-yl]-9H-carbazol-9-yl}benzamide] showed a melting point of 180 °C, a pIC50 (Hsp82) of 5.00 to 6.00 and a pIC50 [1] of 5.00 to 6.00.

`NC(=O)c1ccc(-n2c3ccccc3c3c(-c4nc5ccc(F)cc5[nH]4)cccc32)cc1NCc1ccoc1` [Example 50, 4-[4-(6-fluoro-1H-benzimidazol-2-yl)-9H-carbazol-9-yl]-2-[(furan-3-ylmethyl)amino]benzamide] showed a pIC50 (Hsp82) of 5.00 to 6.00 and a pIC50 [1] of over 6.00.

Work on `NC(=O)c1ccc(-n2c3ccccc3c3c(-c4nc5ccc(F)cc5[nH]4)cccc32)cc1NC1CCOCC1` [Example 59, 4-[4-(6-fluoro-1H-benzimidazol-2-yl)-9H-carbazol-9-yl]-2-(tetrahydropyran-4-ylamino)benzamide] yielded a pIC50 (Hsp82) of over 6.00 and a pIC50 [1] of over 6.00.

For `NCCNc1cc(-n2c3ccccc3c3c(-c4nc5ccc(F)cc5[nH]4)cccc32)ccc1C(N)=O` [Example 18, 2-(2-aminoethylamino)-4-[4-(6-fluoro-1H-benzimidazol-2-yl)-9H-carbazol-9-yl]benzamide], the pIC50 (Hsp82) was over 6.00 and the pIC50 [1] was 5.00 to 6.00.

Work on `CC(C)(C)OC(=O)NCC(=O)O[C@H]1CC[C@H](Nc2cc(-n3c4ccccc4c4c(-c5nc6ccc(F)cc6[nH]5)cccc43)ccc2C(N)=O)CC1` [Example 21, tert-butoxycarbonylaminoacetic acid 4-trans-{2-carbamoyl-5-[4-(6-fluoro-1H-benzimidazol-2-yl)-9H-carbazol-9-yl]phenylamino}cyclohexyl ester] yielded a pIC50 (Hsp82) of 5.00 to 6.00 and a pIC50 [1] of over 6.00.

With `NCC(=O)O[C@H]1CC[C@H](Nc2cc(-n3c4ccccc4c4c(-c5nc6ccc(F)cc6[nH]5)cccc43)ccc2C(N)=O)CC1` [Example 25, trifluoroacetate of the 4-trans-{2-carbamoyl-5-[4-(6-fluoro-1H-benzimidazol-2-yl)-9H-carbazol-9-yl]phenylamino}cyclohexyl ester of aminoacetic acid] the pIC50 (Hsp82) was 5.00 to 6.00 and the pIC50 [1] was over 6.00.

Molecule `CN1CCC(O)(CCNc2cc(-n3c4ccccc4c4c(-c5cnc6ccccc6c5)cccc43)ccc2C(N)=O)CC1` [Example 65, 2-[2-(4-hydroxy-1-methylpiperidin-4-yl)ethylamino]-4-[4-(quinolin-3-yl)-9H-carbazol-9-yl]benzamide] has a pIC50 (Hsp82) of over 6.00 and a pIC50 [1] of over 6.00.

In the case of `NC(=O)c1ccc(-n2c3ccccc3c3c(-c4cnc(N)nc4)cccc32)cc1N[C@H]1CC[C@H](O)CC1` [Example 55, 4-[4-(2-aminopyrimidin-5-yl)-9H-carbazol-9-yl]-2-[(4-trans-hydroxycyclohexyl)amino]benzamide hydrochloride], the pIC50 (Hsp82) was over 6.00 and the pIC50 [1] was over 6.00.

Molecule `CC(C)(C)OC(=O)NCCC(=O)O[C@H]1CC[C@H](Nc2cc(-n3c4ccccc4c4c(-c5nc6ccc(F)cc6[nH]5)cccc43)ccc2C(N)=O)CC1` [Example 23, 3-tert-butoxycarbonylaminopropionic acid 4-trans-{2-carbamoyl-5-[4-(6-fluoro-1H-benzimidazol-2-yl)-9H-carbazol-9-yl]phenylamino}cyclohexyl ester] has a pIC50 (Hsp82) of 5.00 to 6.00 and a pIC50 [1] of over 6.00.

In the case of `CC(=O)NCCNc1cc(-n2c3ccccc3c3c(-c4nc5ccc(F)cc5[nH]4)cccc32)ccc1C(N)=O` [Example 17, 2-(2-acetylaminoethylamino)-4-[4-(6-fluoro-1H-benzimidazol-2-yl)-9H-carbazol-9-yl]benzamide], the pIC50 (Hsp82) was over 6.00 and the pIC50 [1] was over 6.00.

For `CCOCCNc1cc(-n2c3ccccc3c3c(-c4nc5ccc(F)cc5[nH]4)cccc32)ccc1C(N)=O` [Example 46, 2-(2-ethoxyethylamino)-4-[4-(6-fluoro-1H-benzimidazol-2-yl)-9H-carbazol-9-yl]benzamide], the pIC50 (Hsp82) was 5.00 to 6.00 and the pIC50 [1] was over 6.00.

In the case of `NC(=O)c1ccc(-n2c3ccccc3c3c(-c4ccc(N)nc4)cccc32)cc1N[C@H]1CC[C@H](O)CC1` [Example 20, 4-[4-(6-aminopyridin-3-yl)-9H-carbazol-9-yl]-2-[(4-trans-hydroxycyclohexyl)amino]benzamide], the pIC50 (Hsp82) was over 6.00 and the pIC50 [1] was over 6.00.

`NC(=O)c1ccc(-n2c3ccccc3c3c(-c4nc5ccc(F)cc5[nH]4)cccc32)cc1NCCOCCO` [Example 7, 4-[4-(6-fluoro-1H-benzimidazol-2-yl)-9H-carbazol-9-yl]-2-[2-(2-hydroxyethoxy)ethylamino]benzamide] showed a pIC50 (Hsp82) of over 6.00 and a pIC50 [1] of over 6.00.

In the case of `COCCCNc1cc(-n2c3ccccc3c3c(-c4nc5ccc(F)cc5[nH]4)cccc32)ccc1C(N)=O` [Example 38, 4-[4-(6-fluoro-1H-benzimidazol-2-yl)-9H-carbazol-9-yl]-2-(3-methoxypropylamino)benzamide], the pIC50 (Hsp82) was over 6.00 and the pIC50 [1] was over 6.00.
